US4535075A, “Dithiolane derivative, process for producing the same and use thereof” (Nihon Nohyaku Co., Ltd., priority 1982, dated 1985)

Experiments:
[1] = test system: liver damage induced by carbon tetrachloride; assay: Protective (Controlling) effect on liver damage induced by carbon tetrachloride; assay type: in vivo, mice (dd strain); settings: 250 mg/kg p.o., CCl4 0.05 ml/kg after 6 h, 24 h; for p-GPT: CCl4 alone >2,100; for Liver Damage Index: average of 5 mice, 0 Normal, 2 Slightly recognized, 4 Clearly observable damage, 6 Heavy damage, CCl4 alone 5.0
From the text: Protective (Controlling) Effect on liver damage induced by carbon tetrachloride.
Carbon tetrachloride administration induces centrilobular necrosis of the liver associated with loss of diphosphopyridine nucleotide, hepatic glycogen, coenzyme A and increase in neutral fat. Release of several enzymes from the hepatocytes, and increases of enzyme activities in the plasma are recognized as the result of the damage of the liver.
A suitable means for evaluating the degree induced by carbon tetrachloride or the degree of protection afforded by drugs is to study the plasma glutamic-pyruvic transaminase (p-GPT) activity. […]
After 6 hours, carbon tetrachloride was administered orally 0.05 ml/kg.
Animals were killed 24 hours after carbon tetrachloride administration, and the liver was grossly observed.
The plasma was obtained by centrifugation. Activity of p-GPT were determined by the method of Reitman and Frankel and expressed in Karmen units.
Score for liver damage index was as follows:
1 Each figure indicated average of 5 mice.

[2] = test system: liver damage induced by α-naphthyl isothiocyanate (ANIT); assay: Protective effect on liver damage induced by ANIT (Method 2); assay type: in vivo, mice (dd strain); settings: Table 3-3, 250 mg/kg p.o., ANIT 35 mg/kg p.o. after 6 h, 24 h; for Alkaline phosphatase activity: control 2.9, ANIT alone >9.6; for p-GPT: control 17.5, ANIT alone >460.2
Protocol: (§1) Protective effect on liver damage induced by α-naphthyl isothiocyanate (referred to as "ANIT", hereinafter).
Test compounds, dissolved or suspended in olive oil or diethyleneglycol, were orally administered at the dose of 250 mg/kg to the mice (Six or Seven-week-old male mice-dd strain).
After 6 hours, ANIT dissolved in olive oil, was aministered orally at 35 mg/kg.
Mice were sacrificed at 24 hours after ANIT administration and blood samples were collected. The blood samples were centrifuged and plasma was obtained.
Plasma GPT activity and alkaline phosphatase activity were determined by Reitman & Frankel's method and Bessey-Lowry's method, respectively.
The activity was expressed with Karmen Unit and Bessey-Lowry Unit, respectively.

[3] = test system: liver damage induced by α-naphthyl isothiocyanate (ANIT); assay: Protective effect on liver damage induced by ANIT (Method 1); assay type: in vivo, mice; settings: 2 x 250 mg/kg p.o., ANIT 35 mg/kg p.o., 24 h
From the text: as §1
It is well known that experimental cholestasis is accomplished by administration with ANIT in mice and rats, and studied as a cholestasis model in human being.
ANIT and CCl4 induce necrosis in the liver. ANIT causes it as small focci in perilobular parenchyna and CCl4 causes centrilobular parenchymal coagulation necrosis.
From these information, the elevation of plasma GPT activity in these models are thought to have defferent characteristics.
Test compounds, dissolved or suspended in olive oil or diethyleneglycol, were orally administered 2 times at intervals of 3 hrs to mice at the dose of 250 mg/kg. At 3 hrs after the second administration with test compounds, ANIT was administered orally at 35 mg/kg.
Mice were sacrificed at 24 hrs after ANIT administration and blood samples were collected. The blood samples were centrifuged and plasma was obtained.
Plasma GPT activity and alkaline phosphatase activity were determined by Reitman & Frankel's method and Bessey-Lowry's method, respectively. The activity was expressed with Karmen Unit and Bessey-Lowry Unit, respectively.

[4] = Table 3-1, control 3.3, ANIT alone 5.3
[5] = Table 3-1, control 7.4, ANIT alone 324.0

Row | SMILES | p-GPT [1] | Liver Damage Index [1] | Alkaline phosphatase activity [2] | p-GPT [2] | Alkaline phosphatase activity ([3]; Table 3-2, ANIT alone 5.3) | p-GPT ([3]; Table 3-2, ANIT alone >653.7) | Alkaline phosphatase activity [3, 4] | p-GPT [3, 5]
1 | C=CCOC(=O)C(C(C)=O)=C1SC(O)C(O)S1 (centres unmarked) [Compound 45] | 13 Karmen units | 0.0 | 5.6 B-L.V. | 136.9 K.U. | – | – | – | –
2 | CC(=O)C(C(=O)OCCC(C)C)=C1SC(O)C(O)S1 (centres unmarked) [Compound 43] | 36 Karmen units | 0.2 | 5.9 B-L.V. | 298.9 K.U. | – | – | – | –
3 | C#CCOC(=O)C(C(C)=O)=C1SC(O)C(O)S1 (centres unmarked) [Compound 46] | 16 Karmen units | 0.0 | 5.3 B-L.V. | 29.9 K.U. | – | – | – | –
4 | O=C(OCc1ccccc1)C(C(=O)OCc1ccccc1)=C1SC(O)C(O)S1 (centres unmarked) [Compound 11] | 33 Karmen units | 0.0 | – | – | 4.3 B-L.V. | 437.5 K.U. | – | –
5 | CCC(C)OC(=O)C(C(C)=O)=C1SC(O)C(O)S1 (centres unmarked) [Compound 40] | 172 Karmen units | 0.4 | 5.2 B-L.V. | 272.5 K.U. | – | – | – | –
6 | CCC(C)OC(=O)C(C(=O)OC(C)CC)=C1SC(O)C(O)S1 (centres unmarked) [Compound 6] | 21 Karmen units | 0.0 | – | – | – | – | 4.9 B-L.V. | 142.0 K.U.
7 | CC(C)COC(=O)C(C(=O)OC(C)C)=C1SC(O)C(O)S1 (centres unmarked) [Compound 22] | 9 Karmen units | 0.0 | – | – | – | – | 5.0 B-L.V. | 221.0 K.U.
8 | CC(=O)C(C(=O)OCc1ccccc1)=C1SC(O)C(O)S1 (centres unmarked) [Compound 48] | 18 Karmen units | 0.0 | 4.1 B-L.V. | 36.8 K.U. | – | – | – | –
9 | CCCOC(=O)C(C(=O)OC(C)C)=C1SC(O)C(O)S1 (centres unmarked) [Compound 20] | 30 Karmen units | 0.4 | – | – | – | – | 4.0 B-L.V. | 163.4 K.U.
10 | COCCOC(=O)C(C(=O)OCCOC)=C1SC(O)C(O)S1 (centres unmarked) [Compound 14] | 56 Karmen units | 0.2 | – | – | 3.1 B-L.V. | 11.5 K.U. | – | –
11 | CC(C)CCOC(=O)C(C(=O)OCCC(C)C)=C1SC(O)C(O)S1 (centres unmarked) [Compound 9] | 47 Karmen units | 0.0 | – | – | 3.4 B-L.V. | 27.2 K.U. | – | –
12 | CC(C)(C)OC(=O)C(C(=O)OC(C)(C)C)=C1SC(O)C(O)S1 (centres unmarked) [Compound 7] | 90 Karmen units | 0.0 | – | – | 3.5 B-L.V. | 422.8 K.U. | – | –
13 | COC(=O)C(C(C)=O)=C1SC(O)C(O)S1 (centres unmarked) [Compound 34] | 31 Karmen units | 0.0 | 4.2 B-L.V. | 32.7 K.U. | – | – | – | –
14 | CCCCOC(=O)C(C(=O)OCC)=C1SC(O)C(O)S1 (centres unmarked) [Compound 18] | 28 Karmen units | 0.0 | – | – | – | – | 4.8 B-L.V. | 180.8 K.U.
15 | CCCCOC(=O)C(C(=O)OC(C)C)=C1SC(O)C(O)S1 (centres unmarked) [Compound 21] | 9 Karmen units | 0.0 | – | – | – | – | 4.5 B-L.V. | 293.1 K.U.
16 | CCCCCOC(=O)C(C(C)=O)=C1SC(O)C(O)S1 (centres unmarked) [Compound 42] | 31 Karmen units | 0.0 | 4.8 B-L.V. | 30.8 K.U. | – | – | – | –
17 | COCC(C)OC(=O)C(C(=O)OC(C)COC)=C1SC(O)C(O)S1 (centres unmarked) [Compound 15, bis(3-methoxypropan-2-yl)4,5-dihydroxy-1,3-dithiolan-2-ylidenemalonate] | 39 Karmen units | 0.0 | – | – | 3.7 B-L.V. | 134.5 K.U. | – | –
18 | CCOC(=O)C(C(=O)OCC(C)C)=C1SC(O)C(O)S1 (centres unmarked) [Compound 19] | 9 Karmen units | 0.4 | – | – | – | – | 5.1 B-L.V. | 170.5 K.U.
19 | CCC(COC)OC(=O)C(C(=O)OC(CC)COC)=C1SC(O)C(O)S1 (centres unmarked) [Compound 16] | 30 Karmen units | 0.2 | – | – | 5.0 B-L.V. | 275.2 K.U. | – | –

Row | SMILES | p-GPT [1] | Liver Damage Index [1] | Alkaline phosphatase activity [2] | p-GPT [2] | Alkaline phosphatase activity ([3]; Table 3-2, ANIT alone 5.3) | p-GPT ([3]; Table 3-2, ANIT alone >653.7) | Alkaline phosphatase activity [3, 4] | p-GPT [3, 5]
20 | C#CCOC(=O)C(C(=O)OCC#C)=C1SC(O)C(O)S1 (centres unmarked) [Compound 13] | 30 Karmen units | 0.0 | – | – | 4.5 B-L.V. | 265.6 K.U. | – | –
21 | CCCCOC(=O)C(C(=O)OCCCC)=C1SC(O)C(O)S1 (centres unmarked) [Compound 4] | 18 Karmen units | 0.0 | – | – | – | – | 3.3 B-L.V. | 26.8 K.U.
22 | CC(=O)C(C(=O)OCC(C)C)=C1SC(O)C(O)S1 (centres unmarked) [Compound 39] | 19 Karmen units | 0.2 | 6.8 B-L.V. | 70.7 K.U. | – | – | – | –
23 | CC(C)OC(=O)C(C(=O)OC(C)C)=C1SCC(O)S1 (centres unmarked) [Compound A, reference compound] | – | – | – | – | 8.5 B-L.V. | > 755.0 K.U. | – | –
24 | O=C(OC1CCCCC1)C(C(=O)OC1CCCCC1)=C1SC(O)C(O)S1 (centres unmarked) [Compound 10] | 72 Karmen units | 0.0 | – | – | 4.9 B-L.V. | 363.7 K.U. | – | –
25 | CCC(C)OC(=O)C(C(=O)OC(C)CC)=C1SC2OC(=O)OC2S1 (centres unmarked) [Compound 78] | 96.0 Karmen units | 0 | – | – | – | – | – | –
26 | CCOC(=O)C(C(=O)Cc1ccccc1)=C1SC(O)C(O)S1 (centres unmarked) [Compound 55] | 105 Karmen units | 1.8 | – | – | – | – | – | –
27 | C=CCOC(=O)C(C(C)=O)=C1SC2OC(=O)OC2S1 (centres unmarked) [Compound 98] | 16.9 Karmen units | 0 | – | – | – | – | – | –
28 | COC(=O)C(C#N)=C1SC(O)C(O)S1 (centres unmarked) [Compound 24] | 152 Karmen units | 1.0 | – | – | – | – | – | –
29 | CCCCOC(=O)C(C#N)=C1SC(O)C(O)S1 (centres unmarked) [Compound 28] | 80 Karmen units | 0.4 | – | – | – | – | – | –
30 | CC(C)OC(=O)C(C(=O)OC(C)C)=C1SC(OC(=O)CCC(=O)O)C(OC(=O)CCC(=O)O)S1 (centres unmarked) [Compound 69] | – | 2.2 | – | – | – | – | – | –
31 | CC(C)OC(=O)C(C(=O)OC(C)C)=C1SC2OC(=S)OC2S1 (centres unmarked) [Compound 109] | 139.3 Karmen units | 0.4 | – | – | – | – | – | –
32 | CCCOC(=O)C(C(C)=O)=C1SC(OC(=O)C(C)(C)C)C(OC(=O)C(C)(C)C)S1 (centres unmarked) [Compound 63] | 402.6 Karmen units | 1.8 | – | – | – | – | – | –
33 | CCCOC(=O)C(C(=O)OCC)=C1SC(O)C(O)S1 (centres unmarked) [Compound 17] | 40 Karmen units | 0.6 | – | – | – | – | 4.8 B-L.V. | 242.0 K.U.
34 | CCC(C)OC(=O)C(C(=O)OC(C)CC)=C1SC2OC(=S)OC2S1 (centres unmarked) [Compound 111] | 18.6 Karmen units | 0.8 | – | – | – | – | – | –
35 | CCC(C)OC(=O)C(C(=O)OC(C)CC)=C1SC(OC(=O)CCC(=O)O)C(OC(=O)CCC(=O)O)S1 (centres unmarked) [Compound 71, di-sec-butyl 4,5-bis(2'-carboxyethylcarbonyloxy)-1,3-dithiolan-2-ylidenemalonate] | – | 2.2 | – | – | – | – | – | –
36 | CCOC(=O)C(C#N)=C1SC(O)C(O)S1 (centres unmarked) [Compound 25] | – | 2.0 | – | – | – | – | – | –
37 | CCCOC(=O)C(C(C)=O)=C1SC2OC(=O)OC2S1 (centres unmarked) [Compound 90] | 23.2 Karmen units | 0.3 | – | – | – | – | – | –
